Patent US6461997B1, “Triazole sulfones having herbicidal activity” (Monsanto Technology LLC, priority 1999, dated 2002)

How the values were obtained:
POLCO (wild buckwheat) = test: Pre-emergence herbicidal activity, cool season; format: in vivo, Polygonum convolvulus; details: lowest tested rate with 80% or greater inhibition; rates 300, 100, 30, 10 g/ha; about 14 days
In short: (§1)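 Herbicidal efficacy was judged visually as percent inhibition compared with untreated plants some 14 days after treatment, giving GR80 over doses of 10 to 300 g/ha. Proso millet and crabgrass grew at 30/21 °C; blackgrass and wild buckwheat grew at 18/13 °C.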

SASKR (russian thistle) = test: Pre-plant incorporated (PPI) herbicidal activity, cool season; format: in vivo, Salsola kali; details: for inhibition at 10 g/ha / inhibition at 30 g/ha / inhibition at 100 g/ha / inhibition at 300 g/ha / inhibition at 900 g/ha: Salsola kali, read-out: Percent inhibition SASKR; for inhibition at 10 g/ha / inhibition at 30 g/ha / inhibition at 100 g/ha / inhibition at 300 g/ha / inhibition at 900 g/ha / Percent inhibition SASKR: weed, PPI application; for PPI activity GR80, SASKR: pre-plant incorporated, lowest tested rate with 80% or greater inhibition, about 14 days
Description: In another set of tests, the pre-plant incorporated (PPI) activity of compounds of this invention was evaluated on the same species as for the pre-emergence tests described above. In the PPI tests the following procedure, designed to simulate PPI application, was used.
(§2) A pre-prepared topsoil mixture (described above) was placed in a pot and compacted to a depth of 1.0 to 1.25 cm from the top of the pot. Seeds of each of several monocotyledonous and dicotyledonous annual plant species were placed on top of the soil. A sufficient quantity of soil to cover the seeds and level fill the pot was weighed into an open container. A known amount of the test compound was dissolved or suspended in an organic solvent and applied by spraying to this cover soil. The cover soil was thoroughly mixed to distribute the test compound throughout the cover soil, and was then applied as a cover layer over the seeds. Untreated soil was used as a cover layer for control pots. After treatment the plants were placed in a greenhouse where they received 0.64 cm of overhead irrigation. All subsequent watering consisted of a light overhead mist and/or subirrigation as needed for germination and growth. Tables 9 and 10 below relate to warm season plant species which were placed after pre-emergence treatment in a greenhouse with a 30/21° C. day/night temperature regime. Tables 11 and 12 below relates to cool season plant species placed after pre-emergence treatment in a greenhouse or growth chamber with an 18/13° C. day/night temperature regime. Only the compounds of Examples 1, 6, 8, 11, 13 and 15-20 were included in PPI tests.
(§3) Approximately 14 days after planting and treating, the plants were observed and herbicidal efficacy recorded as percent inhibition by comparison with untreated plants.

[1] = test system: AGSST (creeping bentgrass); test: Post-emergence herbicidal activity, cool season; format: in vivo, Agrostis stolonifera; details: abraded plants sprayed at 300, 100, 30 and 10 g/ha; about 14 days after treatment
In short: (§4)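 Read-out was GR80, derived from percent growth inhibition relative to abraded, unsprayed control plants, observed roughly 14 days after spraying. Compounds in 50:50 acetone/water were applied at 300, 100, 30 and 10 g/ha to seedlings 9 to 14 days old whose foliage had been sand-abraded to aid uptake.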

[2] = test system: AEGCY (jointed goatgrass); test: Post-emergence herbicidal activity, cool season; format: in vivo, Aegilops cylindrica; details: abraded plants sprayed at 300, 100, 30 and 10 g/ha; about 14 days after treatment
In short: as §4

DIGSA (large crabgrass) = test: Pre-emergence herbicidal activity, warm season; format: in vivo, Digitaria sanguinalis; details: for Pre-emergence activity (GR80) DIGSA: GR80 = lowest tested rate (300, 100, 30, 10 g/ha) with 80% or greater inhibition, approx. 14 days after treating, 30/21° C.
In short: as §1

LOLMG (annual ryegrass) = test: Post-emergence herbicidal activity, cool season; format: in vivo, Lolium multiflorum; details: abraded plants sprayed at 300, 100, 30 and 10 g/ha; about 14 days after treatment
In short: as §4

soybean (GLYMX) = test: Selectivity test, PPI, warm season crop; format: in vivo, Glycine max; details: PPI application; for inhibition at 10 g/ha / inhibition at 30 g/ha / inhibition at 100 g/ha / inhibition at 300 g/ha / inhibition at 900 g/ha: Glycine max, read-out: Percent inhibition GLYMX
Description: as §2, §3
Additional pre-emergence and PPI tests were conducted by the procedures described above, on warm and cool season weed species in the presence of crop species, to assess herbicidal selectivity. Crop species included in warm season tests were corn (Zea mays, ZEAMX), rice (Oryza sativa, ORYSA) and soybean (Glycine max, GLYMX). Crop species included in cool season tests were wheat (Triticum aestivum, TRZAW), barley (Hordeunm vulgare, HORVX) and oilseed rape (Brassica napus, BRSNS).
Tables 15 and 16 relate to pre-emergence and PPI tests respectively on warm season species. Table 17 relates to pre-emergence tests on cool season species.

[3] = test system: VERPE (creeping speedwell); test: Pre-emergence herbicidal activity, cool season; format: in vivo, Veronica persicaria; details: lowest tested rate with 80% or greater inhibition; rates 300, 100, 30, 10 g/ha; about 14 days
In short: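 Seeds sown in sterilised fertilised topsoil received surface-applied compound in 50:50 acetone/water, typically at 300, 100, 30 and 10 g/ha, then greenhouse-grown at 30/21° C (warm-season species) or 18/13° C (cool-season species). Percent inhibition versus untreated plants was scored at about 14 days, giving GR80; an asterisk marks activity short of 80% at the top rate.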

Row | Compound | Pre-emergence activity GR80, POLCO (POLCO (wild buckwheat)) | inhibition at 10 g/ha (SASKR (russian thistle); 10 g/ha) [%] | inhibition at 30 g/ha (SASKR (russian thistle); 30 g/ha) [%] | inhibition at 100 g/ha (SASKR (russian thistle); 100 g/ha) [%] | inhibition at 300 g/ha (SASKR (russian thistle); 300 g/ha) [%] | inhibition at 900 g/ha (SASKR (russian thistle); 900 g/ha) [%] | PPI activity GR80, SASKR (SASKR (russian thistle)) [g/ha] | Post-emergence activity GR80, AGSST [1] | Post-emergence activity GR80, AEGCY [2] | Pre-emergence activity (GR80) DIGSA (DIGSA (large crabgrass)) [g/ha] | Post-emergence activity GR80, LOLMG (LOLMG (annual ryegrass)) | inhibition at 10 g/ha (soybean (GLYMX); 10 g/ha) [%] | inhibition at 30 g/ha (soybean (GLYMX); 30 g/ha) [%] | inhibition at 100 g/ha (soybean (GLYMX); 100 g/ha) [%] | inhibition at 300 g/ha (soybean (GLYMX); 300 g/ha) [%] | inhibition at 900 g/ha (soybean (GLYMX); 900 g/ha) [%] | Pre-emergence activity GR80, VERPE [3] | Percent inhibition SASKR (SASKR (russian thistle); 30 g/ha) [%] | Percent inhibition SASKR (SASKR (russian thistle); 100 g/ha) [%] | Percent inhibition SASKR (SASKR (russian thistle); 300 g/ha) [%] | also measured
1 | C=CCC(F)(F)S(=O)(=O)c1ncn(C(=O)N(CC)CC)n1 [Example 17, 1-(N,N-diethylcarbamoyl)-3-[(1,1-difluoro-3-butenyl)sulfonyl]-1,2,4-triazole] | 100 g/ha | 0 | 0 | 0 | 60 | 100 | 30 | 300 g/ha | [empty] | 100 | [empty] | 0 | 0 | 0 | 20 | 80 | 100 g/ha |  |  |  | 
2 | C=C(C)CC(F)(F)S(=O)(=O)c1ncn(C(=O)N(CC)CC)n1 [Example 18] | 300 g/ha | 0 | 0 | 80 | 80 | 100 | 30 | [empty] | [empty] | 100 | [empty] | 0 | 0 | 0 | 0 | 50 | 300 g/ha |  |  |  | 
3 | CCN(CC)C(=O)n1cnc(S(=O)(=O)C(F)(F)Br)n1 [Example 1, 3-(bromodifluoromethylsulfonyl)-1-(N,N-diethylcarbamoyl)-1,2,4-triazole] | [empty] |  | 80 | 100 | 100 | 100 | 100 | [empty] | [empty] | 30 | [empty] | 0 | 0 | 0 | 0 | 40 | 100 g/ha |  |  |  | inhibition at 10 g/ha (DIGSA (large crabgrass); Digitaria sanguinalis, pre-emergence application, 10 g/ha, read-out: Percent inhibition, weed DIGSA): 0%; inhibition at 30 g/ha (DIGSA (large crabgrass); Digitaria sanguinalis, pre-emergence application, 30 g/ha, read-out: Percent inhibition, weed DIGSA): 60%; inhibition at 100 g/ha (DIGSA (large crabgrass); Digitaria sanguinalis, pre-emergence application, 100 g/ha, read-out: Percent inhibition, weed DIGSA): 100%; inhibition at 300 g/ha (DIGSA (large crabgrass); Digitaria sanguinalis, pre-emergence application, 300 g/ha, read-out: Percent inhibition, weed DIGSA): 100%; inhibition at 900 g/ha (DIGSA (large crabgrass); Digitaria sanguinalis, pre-emergence application, 900 g/ha, read-out: Percent inhibition, weed DIGSA): 100%
4 | CCN(CC)C(=O)n1cnc(S(=O)(=O)C(F)(F)SC)n1 [Example 9] | [empty] |  |  |  |  |  |  | [empty] | [empty] | 100 | [empty] |  |  |  |  |  | 100 g/ha | 50 | 100 | 95 | Percent inhibition SASKR (SASKR (russian thistle); 900 g/ha): 100%; Percent inhibition GLYMX (soybean (GLYMX); 30 g/ha): 0%; Percent inhibition GLYMX (soybean (GLYMX); 100 g/ha): 10%; Percent inhibition GLYMX (soybean (GLYMX); 300 g/ha): 20%; Percent inhibition GLYMX (soybean (GLYMX); 900 g/ha): 40%
5 | C=C(CC(F)(F)S(=O)(=O)c1ncn(C(=O)N(CC)CC)n1)C[Si](C)(C)C [Example 20] | * (activity observed, at least at highest rate, but <80% inhibition) |  |  |  |  |  | 300 | [empty] | [empty] | 100 | [empty] |  |  |  |  |  | [empty] | 0 | 40 | 0 | Percent inhibition SASKR (SASKR (russian thistle); 10 g/ha): 0%; Percent inhibition SASKR (SASKR (russian thistle); 900 g/ha): 100%; Percent inhibition GLYMX (soybean (GLYMX); 10 g/ha): 0%; Percent inhibition GLYMX (soybean (GLYMX); 30 g/ha): 0%; Percent inhibition GLYMX (soybean (GLYMX); 100 g/ha): 0%; Percent inhibition GLYMX (soybean (GLYMX); 300 g/ha): 0%; Percent inhibition GLYMX (soybean (GLYMX); 900 g/ha): 30%
6 | CCN(CC)C(=O)n1cnc(S(=O)(=O)C(F)(F)SCc2ccccc2)n1 [Example 10] | [empty] |  |  |  |  |  |  | [empty] | [empty] | 100 | [empty] |  |  |  |  |  | 100 g/ha | 20 | 90 | 100 | Percent inhibition SASKR (SASKR (russian thistle); 10 g/ha): 10%; Percent inhibition SASKR (SASKR (russian thistle); 900 g/ha): 100%; Percent inhibition GLYMX (soybean (GLYMX); 10 g/ha): 0%; Percent inhibition GLYMX (soybean (GLYMX); 30 g/ha): 0%; Percent inhibition GLYMX (soybean (GLYMX); 100 g/ha): 0%; Percent inhibition GLYMX (soybean (GLYMX); 300 g/ha): 10%; Percent inhibition GLYMX (soybean (GLYMX); 900 g/ha): 70%
7 | C=C(Br)CC(F)(F)S(=O)(=O)c1ncn(C(=O)N(CC)CC)n1 [Example 19] | [empty] | 0 | 0 | 0 | 60 | 95 | 30 | [empty] | [empty] | 100 | [empty] | 0 | 0 | 0 | 0 | 20 | 300 g/ha |  |  |  | 
8 | CCSC(F)(F)S(=O)(=O)c1ncn(C(=O)N(CC)CC)n1 [Example 8, 1-(N,N-diethylcarbamoyl)-3-[difluoro(ethylthio)methylsulfonyl]-1,2,4-triazole] | [empty] |  | 0 | 50 | 90 | 100 | 100 | [empty] | [empty] | 100 | [empty] |  | 0 | 10 | 40 | 65 | 30 g/ha |  |  |  | 
